Test system: reserpine-induced tremors
Test: Reserpine-induced tremors in rats (tremor monitor power spectra)
Format: in vivo, rat
Details: for effect on reserpine-induced tremors in pilot studies: rats, L-DOPA with benserazide
Description: Parkinson's disease is associated with severe dopamine deficiency caused by neurodegeneration of dopaminergic cell bodies residing in Substantia Nigra pars compacta. As alpha6 nAChRs are enriched in the nigrostriatal dopamine pathway, activating this receptor may ameliorate symptoms in nigro-striatal dopamine deficiency models. Reserpine injections to rodents result in depletion of monoamines in the nigro-striatal dopamine pathway, resulting in catalepsy and tremors. Both behaviours can be quantified using dedicated tremor boxes.
Six groups of male Sprague Dawley rats (250-300 grams) were subjected to the following treatment schedules, and effects on power spectra, assessed in automated tremor monitors were evaluated for 30 minutes: • Vehicle+vehicle • Vehicle+reserpine (1 mg/kg) • 9-Methyl-3-pyridin-3-yl-3,9-diaza-bicyclo[3.3.1]nonane (0.1 mg/kg)+reserpine (1 mg/kg) • 9-Methyl-3-pyridin-3-yl-3,9-diaza-bicyclo[3.3.1]nonane (1.0 mg/kg)+reserpine (1 mg/kg) • L-DOPA (100 mg/kg)+reserpine (1 mg/kg) • 9-Methyl-3-pyridin-3-yl-3,9-diaza-bicyclo[3.3.1]nonane (1.0 mg/kg)+L-DOPA (100 mg/kg)+reserpine (1 mg/kg)
Reserpine was pre-treated i.v. 60 minutes prior to test start in a dose volume of 2 ml/kg. 9-Methyl-3-pyridin-3-yl-3,9-diaza-bicyclo[3.3.1]nonane was pre-treated s.c. 45 minutes prior to test start in a dose volume of 1 ml/kg. The dose of 9-methyl-3-pyridin-3-yl-3,9-diaza-bicyclo[3.3.1]nonane was based on 3H-epibatidin displacement studies showing half maximal displacement of specific binding of 3H-epibatidin in doses equaling 0.15 mg/kg in rats. L-DOPA was pre-treated i.p. 30 minutes prior to test start in a dose volume of 5 ml/kg. […] All animals dosed with L-DOPA was also dosed with the peripherally acting decarboxylase inhibitor Benserazide to prevent the peripheral break down of L-DOPA (benserazide: 50 mg/kg, s.c., 30 min. prior to test start in a dose volume of 1 ml/kg).

[1] = reserpine 1 mg/kg i.v., compound 0.1 and 1.0 mg/kg s.c., L-DOPA 100 mg/kg i.p. + benserazide

Row | Structure (SMILES) | activity per se of the L-DOPA dose in pilot studies (pilot studies, L-DOPA 100 mg/kg i.p.) | effect on reserpine-induced tremors in pilot studies (pilot studies) | effect on reserpine-induced tremors, AUC 20-43 Hz (reserpine 1 mg/kg i.v., L-DOPA 100 mg/kg i.p. + benserazide) | effect on reserpine-induced tremors, AUC 40-63 Hz [1] | reversal of reserpine-induced reduction of low frequency movements (catalepsy), AUC 3-13 Hz [1]
1 | N[C@@H](Cc1ccc(O)c(O)c1)C(=O)O [L-DOPA] | marginal activity per se | reverse reserpine-induced tremors | without exerting any effects | reduces reserpine-induced tremors | Neither threshold dose of L-DOPA, nor 9-methyl-3-pyridin-3-yl-3,9-diaza-bicyclo[3.3.1]nonane or the combination of the two, was able to reverse this reduction
2 | CN1CCc2cccc3c2[C@H]1Cc1ccc(O)c(O)c1-3 [apomorphine] |  | reverse reserpine-induced tremors |  |  | 

Source: patent US20180311238A1, “Selective Agonist Of a6 Containing nAChRs” (Saniona A/S, priority 2017, published 2018)
